According to BindingDB's records for doi:10.7270/Q25719FH (Srmlsc, 2007):

Molecular target: Multidrug resistance-associated protein 1 (Homo sapiens, UniProt P33527)
Test: doxorubicin EC50 increase in MRP-1 cells, dose response, cell-based, doxorubicin EC50 shift (AID 844)

Sequence of Multidrug resistance-associated protein 1 (P33527 whole entry): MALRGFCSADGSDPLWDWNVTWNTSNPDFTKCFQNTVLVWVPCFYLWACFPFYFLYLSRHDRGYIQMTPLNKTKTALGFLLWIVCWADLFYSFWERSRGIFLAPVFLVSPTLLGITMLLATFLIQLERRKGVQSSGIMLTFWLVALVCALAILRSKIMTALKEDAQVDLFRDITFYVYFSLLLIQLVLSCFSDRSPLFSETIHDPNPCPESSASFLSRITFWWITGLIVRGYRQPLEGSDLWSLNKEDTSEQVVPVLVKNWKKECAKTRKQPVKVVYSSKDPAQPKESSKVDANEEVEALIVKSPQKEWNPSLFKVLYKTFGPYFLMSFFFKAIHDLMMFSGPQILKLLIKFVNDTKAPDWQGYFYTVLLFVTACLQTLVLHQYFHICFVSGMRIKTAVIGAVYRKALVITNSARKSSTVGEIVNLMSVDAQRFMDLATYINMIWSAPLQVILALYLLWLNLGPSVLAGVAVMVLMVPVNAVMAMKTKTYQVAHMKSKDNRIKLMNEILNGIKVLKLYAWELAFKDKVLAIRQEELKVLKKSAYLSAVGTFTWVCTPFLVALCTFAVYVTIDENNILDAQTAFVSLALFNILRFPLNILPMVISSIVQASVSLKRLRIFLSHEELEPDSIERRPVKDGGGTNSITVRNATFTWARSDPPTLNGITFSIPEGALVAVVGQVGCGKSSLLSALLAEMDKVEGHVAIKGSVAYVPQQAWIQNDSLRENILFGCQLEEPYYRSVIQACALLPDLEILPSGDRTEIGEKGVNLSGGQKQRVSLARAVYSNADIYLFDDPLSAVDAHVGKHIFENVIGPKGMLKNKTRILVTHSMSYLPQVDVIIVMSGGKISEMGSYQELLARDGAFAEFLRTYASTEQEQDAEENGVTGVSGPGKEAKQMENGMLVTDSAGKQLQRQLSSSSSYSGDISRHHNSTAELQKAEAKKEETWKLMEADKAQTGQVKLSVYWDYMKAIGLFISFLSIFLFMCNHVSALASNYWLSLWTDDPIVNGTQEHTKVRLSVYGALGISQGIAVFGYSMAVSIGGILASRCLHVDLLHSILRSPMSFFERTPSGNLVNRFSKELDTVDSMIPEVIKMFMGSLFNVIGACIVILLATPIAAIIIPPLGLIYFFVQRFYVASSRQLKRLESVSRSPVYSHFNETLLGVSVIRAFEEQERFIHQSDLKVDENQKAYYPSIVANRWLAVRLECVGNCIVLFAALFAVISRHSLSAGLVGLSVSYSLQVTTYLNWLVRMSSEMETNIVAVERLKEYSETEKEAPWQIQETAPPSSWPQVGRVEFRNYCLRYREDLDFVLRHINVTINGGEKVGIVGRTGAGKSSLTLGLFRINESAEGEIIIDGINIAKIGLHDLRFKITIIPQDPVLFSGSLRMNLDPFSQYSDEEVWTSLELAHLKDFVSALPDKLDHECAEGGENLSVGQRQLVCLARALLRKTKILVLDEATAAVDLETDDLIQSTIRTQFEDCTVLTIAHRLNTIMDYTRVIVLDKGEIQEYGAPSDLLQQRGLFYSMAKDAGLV

Compound	EC50 [µM]
Oc1cc(N2CCCN(c3cc(O)n(-c4ccc(F)cc4)c3O)CC2)c(O)n1-c1ccc(F)cc1 [1-(4-fluorophenyl)-3-[4-[1-(4-fluorophenyl)-2,5-bis(oxidanylidene)pyrrolidin-3-yl]-1,4-diazepan-1-yl]pyrrolidine-2,5-dione]	6.34
Oc1nc(Nc2ccc(Cl)cc2)sc1Cc1cc(Cl)ccc1Cl [2-(4-chloroanilino)-5-(2,5-dichlorobenzyl)-2-thiazolin-4-one]	5.86
CCOC(=O)C1C(C)=Nc2sc(C(=O)c3ccc(OC)cc3)c(N)c2C1c1ccc(C(=O)OC)cc1 (centres undefined) [3-Amino-2-(4-methoxy-benzoyl)-4-(4-methoxycarbonyl-phenyl)-6-methyl-4,7-dihydro-thieno[2,3-b]pyridine-5-carboxylic acid ethyl ester]	1.1
O=S(=O)(c1ccc(Cl)cc1Br)N1CCCCC1 [1-(2-bromanyl-4-chloranyl-phenyl)sulfonylpiperidine]	5.42
O=C1CCCC(=O)C1=NNc1ccc2c(c1)OCO2 [2-(1,3-benzodioxol-5-ylhydrazinylidene)cyclohexane-1,3-dione]	6.29
COC1(OC)C(O)CCC(N=O)C1N=O (centres undefined) [2,2-dimethoxy-3-nitroso-4-(oxidanylamino)cyclohex-3-en-1-ol]	4.16
COc1ccc(CN2C(=O)C(=CNc3ccc(OC)cc3)c3ccccc3C2=O)cc1 [SMR000259567]	7.24
Oc1cc(N2CCC(O)(c3ccc(Br)cc3)CC2)c(O)n1-c1ccc(Cl)cc1 [3-[4-(4-bromophenyl)-4-hydroxy-1-piperidinyl]-1-(4-chlorophenyl)-2,5-pyrrolidinedione]	7.39
O=C1Nc2ccccc2[C@@]12N[C@@H](Cc1ccc(O)cc1)c1c2c(O)n(-c2ccc(F)cc2)c1O [(1S,3R,3aR,6aS)-5-(4-fluorophenyl)-1-(4-hydroxybenzyl)spiro[1,2,3a,6a-tetrahydropyrrolo[3,4-c]pyrrole-3,3'-indoline]-2',4,6-trione]	7.87
O=C1/C(=C/c2nc3ccccc3[nH]2)SC(=S)N1c1ccc(F)cc1 [MLS000331487]	3.39
CCOC(=O)C1C(C)=Nc2ncnn2C1c1cccnc1 (centres undefined)	4.5
N#CC(C#N)N=Nc1ccc(S(=O)(=O)N2CCCC2)cc1 [2-[(4-pyrrolidin-1-ylsulfonylphenyl)hydrazinylidene]propanedinitrile]	5.88
COc1ccc(NC(=O)Cc2c(O)n(-c3ccc(F)cc3)c(=S)n2NC(=O)c2ccccc2)cc1 [MLS000592105]	4.29
C=CCc1c(C)nc(-c2ccccc2)nc1N=NC(C)c1ccc(N)cc1 (centres undefined) [(5-allyl-6-methyl-2-phenyl-pyrimidin-4-yl)-[1-(4-aminophenyl)ethylideneamino]amine]	6.99
COc1ccc(-n2c(O)c(CC(=O)Nc3ccc(F)cc3)n(CCc3cccs3)c2=O)cc1 [2-[2,5-diketo-1-(4-methoxyphenyl)-3-[2-(2-thienyl)ethyl]imidazolidin-4-yl]-N-(4-fluorophenyl)acetamide]	4.38
O=C1c2ccccc2SC1/C=N/c1cc([N+](=O)[O-])ccc1O (centres undefined) [(2Z)-2-[[(5-nitro-2-oxidanyl-phenyl)amino]methylidene]-1-benzothiophen-3-one]	0.457
CCOC(=O)C1C(C)=Nc2sc(C(=O)c3ccc(C)cc3)c(N)c2C1c1ccc(C(=O)OC)cc1 (centres undefined) [3-Amino-4-(4-methoxycarbonyl-phenyl)-6-methyl-2-(4-methyl-benzoyl)-4,7-dihydro-thieno[2,3-b]pyridine-5-carboxylic acid ethyl ester]	1.96
Oc1nc(Nc2ccc(Cl)cc2)sc1Cc1cccc(Cl)c1Cl [2-(4-chloroanilino)-5-(2,3-dichlorobenzyl)-2-thiazolin-4-one]	6.41
COc1ccc(NC(=O)Cc2c(O)n(-c3ccc(Cl)cc3)c(=S)n2NC(=O)c2cccc(F)c2)cc1 [MLS000590171]	3.59
